According to US20200255492A1, “LEPTIN PEPTIDES AND THEIR USE FOR TREATING NEUROLOGICAL DISORDERS” (UNIVERSITY OF DUNDEE, priority 2017, published 2020):

Assays:
[1] = tested on: differentiated human neural cells (SH-SY5Y); assay: Crystal violet assay of cell number; format: cell-based
Procedure: The human neuroblastoma cell line, SH-SY5Y (ECACC, UK) was maintained in Dulbecco's Modified Eagle Medium supplemented with glucose ([…]) and 10% (v/v) cosmic calf serum (Fisher Scientific, UK) at 37° C. in a humidified atmosphere of 5% CO2, 95% air and allowed to reach 70-80% confluence before seeding. Cells (passage 10-18) were plated at 10 000 cells per well in 96 well tissue culture plates (Nunc, VWR, UK) and at a density of 2×10^5 cells in 35 mm dishes for protein extraction. To induce differentiation, cells were cultured in DMEM supplemented with glucose ([…]), 1% (v/v) cosmic calf serum and 10 μM retinoic acid for 5 days. Thereafter they were incubated in DMEM supplemented with glucose ([…]), serum replacement 2 (2%; Sigma, UK) and 18 μM 5-fluorodeoxyuridine to inhibit proliferation of undifferentiated cells. The 50% of the medium was changed every 2-3 days and pharmacological treatment was carried out 7 days after switching to this medium. Reagents used were (from Sigma UK unless stated) 0.1-10 nM human leptin and leptin (116-130); 0.1-10 nM leptin (22-56; Bachem; Switzerland); 10 nM leptin (116-121) leptin (117-122), leptin (124-129) or leptin (125-130; all Severn Biotech, UK); 5 μM copper chloride; […], 5 μM WP1066 or 50 nM wortmannin. All treatments were added to the culture at the same time and survival assays were carried out after 96 h treatment. Protein samples for signaling ELISA were extracted 3 h after exposure to the relevant reagents and for biomarker expression after 72 hours.
(§1) The concentration of lactate dehydrogenase (LDH) in the culture medium or the mitochondrial activity within cells was used to monitor the level of cell death, as previously (Oldreive and Doherty 2010). In certain experiments, a Crystal violet assay was used to assess total cell number. Cells were fixed in neutral buffered formalin and washed 3 times in PBS prior to staining with 0.01% crystal violet acetate for 5 min. Plates were washed 5-10 times in dH2O and cells solubilised in 100 μl dimethyl sulfoxide (DMSO) before reading the absorbance on a Biohit BP100 plate reader. For all assays, data is expressed as percentage relative to control, untreated wells to normalize for differences in plating density between individual experiments.
In parallel studies a crystal violet assay was used to verify these findings by assessing cell number. In CuCl2-treated cells, there was a concentration-dependent increase in the survival of cells treated with either leptin or leptin (116-130). […] Treatment with leptin (116-130) also mirrored leptin action by increasing cell viability in Aβ1-42-treated cultures as cell number increased by 19.2±15% and 44.3±7.5% after treatment with 0.1 nM or 10 nM leptin, respectively (n=5 for each; P<0.01).

mice = assay: Murine episodic-like memory test with hexamers; format: in vivo; details: IP 7.8 nM/ml; tested 45 minutes post-injection; vs saline
Procedure: FIG. 24. Bar chart of the quantification of the fluorescent signal per cell following thioflavin S staining of neuronal cultures 96 hours after seeding with 1 μM Amyloid (Ab1-42). Cultures were established in triplicate on 3 separate occasions and statistical significance relative to control untreated cultures is denoted by *** where P<0.001 (A). […] 3 groups of mice (n=8 per group) were IP injected with saline (control) on 7.8 nM/ml leptin116-121 or […]. Memory performance was tested 45 minutes post-injection. Statistical significance relative to saline-injected animals is denoted by * where P<0.05. […] Leptin levels were determined by ELISA, using a commercially-supplied kit (Sigma, UK) and using blood serum harvested 24 hours post injection.
Further to this we have evaluated the effects of these hexamer peptides on episodic memory in mice. There is an 8 fold increase in episodic memory performance following treatment with leptin116-121 or […] (FIG. 24B). This implies that both leptin hexamers enhance the ability of the mice to recognise the presence of a novel object within the test arena.

acute hippocampal slices = assay: HFS-induced LTP with leptin hexamers; format: cell-based, Sprague Dawley rats; details: 10 nM for 50 min prior to HFS; control LTP 117±10.8% / 125±4.9%
Procedure: Parasagittal hippocampal slices (300 μm) were prepared from either P13-21 or 12-24-week-old male Sprague Dawley rats as previously (Moult et al. 2010). Brains were rapidly removed and placed in ice-cold artificial CSF (aCSF; bubbled with 95% O2 and 5% CO2) containing the following (in mm): 124 NaCl, 3 KCl, 26 NaHCO3, 1.25 NaH2PO4, 2 CaCl2, 1 MgSO4, and 10 d-glucose. Once prepared, parasagittal slices were allowed to recover at room temperature in oxygenated aCSF for 1 h before use. Slices were transferred to a submerged chamber maintained at room temperature and perfused with artificial cerebrospinal fluid at 2 ml min^−1. Standard extracellular recordings were used to monitor evoked field excitatory postsynaptic potentials (fEPSP) from stratum radiatum. The Schaffer collateral-commissural pathway was stimulated (constant voltage; 0.1 ms) at 0.033 Hz, using a stimulus intensity that evoked a peak amplitude ˜50% of the maximum. Synaptic potentials were low pass filtered at 2 kHz and digitally sampled at 10 kHz. The fEPSP slope was measured and expressed relative to baseline. Synaptic records are the average of 4 consecutive responses and stimulus artefacts are blanked for clarity. Recordings were made using an Axopatch 200B amplifier and analyzed using LTP v2.4 software. In synaptic plasticity studies, the degree of potentiation was calculated 30-35 min after HFS and expressed as a percentage of baseline±standard error of mean (SEM).
To determine if the leptin hexamers influence the magnitude of activity-dependent synaptic plasticity, standard extracellular recording techniques were used to assess the effects of leptin (116-121, 117-122, 118-123, 120-125, 124-129 and 125-130) on the magnitude of LTP induced by high frequency stimulation (100 Hz, 1 s) in acute hippocampal slices. […] In parallel studies, application of leptin (118-123; 158±3.8%; n=7; p<0.05; FIG. 8) or leptin (120-125; to 163±8.8% of baseline; n=5; p<0.05) also facilitated LTP, compared to control LTP (FIG. 8).

SH-SY5Y = assay: Cell survival with Aβ1-42 and leptin (22-56) (data not shown); format: cell-based, human
Procedure: The human neuroblastoma cell line, SH-SY5Y (ECACC, UK) was maintained in Dulbecco's Modified Eagle Medium supplemented with glucose ([…]) and 10% (v/v) cosmic calf serum (Fisher Scientific, UK) at 37° C. in a humidified atmosphere of 5% CO2, 95% air and allowed to reach 70-80% confluence before seeding. Cells (passage 10-18) were plated at 10 000 cells per well in 96 well tissue culture plates (Nunc, VWR, UK) and at a density of 2×10^5 cells in 35 mm dishes for protein extraction. To induce differentiation, cells were cultured in DMEM supplemented with glucose ([…]), 1% (v/v) cosmic calf serum and 10 μM retinoic acid for 5 days. Thereafter they were incubated in DMEM supplemented with glucose ([…]), serum replacement 2 (2%; Sigma, UK) and 18 μM 5-fluorodeoxyuridine to inhibit proliferation of undifferentiated cells. […]
as §1, with “In certain experiments, a Crystal violet assay was used to assess total cell number. Cells were fixed in neutral buffered formalin and washed 3 times in PBS prior to staining with 0.01% crystal violet acetate for 5 min.” left out, “experiments. […]” for “experiments.”

| Substance | increase in cell number, Aβ1-42-treated cultures ([1]; 0.1 nM) | increase in cell number, CuCl2-treated cells ([1]; 0.1 nM) | increase in cell number, Aβ1-42-treated cultures ([1]; 10 nM) | increase in cell number, CuCl2-treated cells ([1]; 10 nM) | increase in episodic memory performance (mice) | magnitude of LTP after HFS (100 Hz, 1 s) (acute hippocampal slices) | further results |
| --- | --- | --- | --- | --- | --- | --- | --- |
| SCSLPQTSGLQKPES (listed as Mus musculus) [leptin (116-130)] | 29.4±9.4% | 27.8±10.6% | 51.8±6.3% | 39.9±13.5% |  |  |  |
| CSLPQT (listed as Mus musculus) [leptin (117-122)] |  |  |  |  | 8 fold | 191±19.7 % of baseline |  |
| SCSLPQ (listed as Mus musculus) [leptin (116-121)] |  |  |  |  | 8 fold | 162±6.3 % of baseline |  |
| leptin (22-56): leptin fragment amino acids 22-56 (Bachem), comparison fragment (VPIQKVQDDTKTLIKTIVTRINDISHTQSVSSKQK; UniProt P41159 22-56, looked up, fragment) [reference compound] |  |  |  |  |  |  | survival in Aβ1-42 treated cells (SH-SY5Y; Aβ1-42 with 10 nM leptin (22-56)): 48.6±9.3% |
| leptin: the metabolic hormone leptin, whole (full length) leptin molecule; human leptin from Sigma in SH-SY5Y work | 19.2±15% | 16.7±3.4% | 44.3±7.5% | 43.4±9.2% |  |  |  |
| Aβ1-42: amyloid beta 1-42, toxin used in the AD models [reference compound] |  |  |  |  |  |  | survival following Aβ1-42 treatment (SH-SY5Y; Aβ1-42 alone): 41.2±5.8 % survival |
